# Values quoted from earlier work as cited in US6632921B1, “Seryl-lysyl-based peptide and peptidomimetic inhibitors of N-myristoyl transferase as anti-infective agents” (G. D Searle & Co, priority 1995, dated 2003).
# Tests used:
# [1] = tested on: a variety of fungal species, including C. albicans; conditions: Sabouraud dextrose agar; series of n-alkoxyacetic acids; cited from earlier work
# [2] = tested on: HIV-1; conditions: acutely and chronically infected human T-lymphocyte cell lines, doses which do not cause cellular toxicity; cited from earlier work
SMILES,effects on the growth of fungal species [1],inhibition of HIV-1 replication [2]
CCCCCCCCCCCOCC(=O)O [3-oxatetradecanoic acid],inhibiting growth,–
CCCCCCCCOCC(=O)O [3-oxaundecanoic acid],broadest spectrum and highest potency,–
COCCCCCCCCCCCC(=O)O [13-oxatetradecanoic acid],–,inhibits HIV-1 replication
